# Assay results from paper PMC7954579 (Cancer chemotherapy and pharmacology, 2020).
# “And” between values parts separate entries of the source, which are not always exact repeats. Equal values may be shown once.
# Legend:
# [1] = test system: colorectal cancer cell line; experiment: In vitro combination study in a colorectal cancer cell line; assay type: cell-based; details: Supplementary Fig. 1A
# [2] = Plasma pharmacokinetics in patients; assay type: in vivo, human; details: for half-life: t1/2,z
# [3] = IV, days 1, 4, 8, 11 of 21-day cycle, with onalespib 80 mg/m^2 (DL2)
# [4] = twice-weekly schedule, monotherapy; cited from earlier work
# CDKs 1,2,4,5, and 9 = details: read-out: IC50 range; cited from earlier work
# [5] = All dose levels, C1D1, AT7519 after onalespib, n = 23, geometric mean
# [6] = All dose levels, C1D11, AT7519 after onalespib, n = 15, geometric mean
# [7] = DL1, C1D1, AT7519 21 mg/m^2 IV after onalespib 40 mg/m^2, n = 4, geometric mean
# [8] = DL1, C1D11, AT7519 21 mg/m^2 IV after onalespib 40 mg/m^2, n = 2, geometric mean
# [9] = DL2, C1D1, AT7519 21 mg/m^2 IV after onalespib 80 mg/m^2, n = 15, geometric mean
# [10] = DL2, C1D11, AT7519 21 mg/m^2 IV after onalespib 80 mg/m^2, n = 11, geometric mean
# [11] = DL3, C1D1, AT7519 27 mg/m^2 IV after onalespib 80 mg/m^2, n = 4, geometric mean
# [12] = DL3, C1D11, AT7519 27 mg/m^2 IV after onalespib 80 mg/m^2, n = 2, geometric mean
# [13] = human, plasma, iv, DL1, C1D1, AT7519 21 mg/m^2 IV after onalespib 40 mg/m^2, n = 4, geometric mean
# [14] = human, plasma, iv, DL1, C1D11, AT7519 21 mg/m^2 IV after onalespib 40 mg/m^2, n = 2, geometric mean
# [15] = human, plasma, iv, DL2, C1D1, AT7519 21 mg/m^2 IV after onalespib 80 mg/m^2, n = 15, geometric mean
# [16] = human, plasma, iv, DL2, C1D11, AT7519 21 mg/m^2 IV after onalespib 80 mg/m^2, n = 11, geometric mean
# [17] = human, plasma, iv, DL3, C1D1, AT7519 27 mg/m^2 IV after onalespib 80 mg/m^2, n = 4, geometric mean
# [18] = human, plasma, iv, DL3, C1D11, AT7519 27 mg/m^2 IV after onalespib 80 mg/m^2, n = 2, geometric mean
structure (smiles),measurement,setting,value
"O=C(NC1CCNCC1)c1n[nH]cc1NC(=O)c1c(Cl)cccc1Cl [AT7519, N-(4-piperidinyl)-4-(2,6-dichlorobenzoylamino)-1H-pyrazole-3-car-boxamide]",Effect on onalespib-induced HSP70 upregulation,[1],dose-dependent inhibition of onalespib-induced HSP70 upregulation
same,CL,[2]; [5],9.97 L/h/m^2
same,Vz,[2]; [5],144.3 L/m^2
same,CL,[2]; [6],8.93 L/h/m^2
same,Vz,[2]; [6],135.9 L/m^2
same,CL,[2]; [7],13.6 L/h/m^2
same,Vz,[2]; [7],146.6 L/m^2
same,CL,[2]; [8],9.98 L/h/m^2
same,Vz,[2]; [8],155.9 L/m^2
same,CL,[2]; [9],9.1 L/h/m^2 and 9.13 L/h/m^2
same,Cmax,[2]; [9],459.3 ng/mL
same,Vz,[2]; [9],146.3 L/m^2
same,CL,[2]; [10],8.6 L/h/m^2 and 8.58 L/h/m^2
same,Cmax,[2]; [10],508.7 ng/mL
same,Vz,[2]; [10],132.6 L/m^2
same,CL,[2]; [11],10.1 L/h/m^2
same,Vz,[2]; [11],134.7 L/m^2
same,CL,[2]; [12],10.0 L/h/m^2
same,Vz,[2]; [12],135.5 L/m^2
same,AUC,[2]; [13],1540 ng·h/mL
same,AUC,[2]; [14],2100 ng·h/mL
same,AUC,[2]; [15],2300 ng·h/mL
same,AUC,[2]; [16],2450 ng·h/mL
same,AUC,[2]; [17],2660 ng·h/mL
same,AUC,[2]; [18],2700 ng·h/mL
same,Cmax,"[2]; human, plasma, iv, Cmax, DL1, C1D1, AT7519 21 mg/m^2 IV after onalespib 40 mg/m^2, n = 4, geometric mean",463 ng/mL
same,Cmax,"[2]; human, plasma, iv, Cmax, DL1, C1D11, AT7519 21 mg/m^2 IV after onalespib 40 mg/m^2, n = 2, geometric mean",486 ng/mL
same,Cmax,"[2]; human, plasma, iv, Cmax, DL2, C1D1, AT7519 21 mg/m^2 IV after onalespib 80 mg/m^2, n = 15, geometric mean",459 ng/mL
same,Cmax,"[2]; human, plasma, iv, Cmax, DL2, C1D11, AT7519 21 mg/m^2 IV after onalespib 80 mg/m^2, n = 11, geometric mean",509 ng/mL
same,Cmax,"[2]; human, plasma, iv, Cmax, DL3, C1D1, AT7519 27 mg/m^2 IV after onalespib 80 mg/m^2, n = 4, geometric mean",602 ng/mL
same,Cmax,"[2]; human, plasma, iv, Cmax, DL3, C1D11, AT7519 27 mg/m^2 IV after onalespib 80 mg/m^2, n = 2, geometric mean",581 ng/mL
same,half-life,[2]; [13],7.48 h
same,half-life,[2]; [14],10.8 h
same,half-life,[2]; [15],11.1 h
same,half-life,[2]; [16],10.7 h
same,half-life,[2]; [17],9.21 h
same,half-life,[2]; [18],9.38 h
same,Maximally tolerated dose (MTD) of AT7519 in the combination,[3],21 mg/m^2
same,RP2D as individual agent,[4],27 mg/m^2
same,IC50,"CDKs 1,2,4,5, and 9",11 to 220 nM
